Results on one substance are retold here after patent publication US20140005119A1, “COMPOSITIONS AND METHODS FOR INHIBITING THE ACTIVITY OF P110a MUTANT PROTEINS” (Case Western Reserve University, priority 2012, published 2014).

One test deals with T1, p110α-p85 interaction (Homo sapiens, UniProt P42336, E545K).
T1 construct: tag the endogenous WT or mutant p110α with 3×FLAG at their C termini in DLD1 cells; endogenous in cells; host or cells: DLD1 p110α E545K 3×FLAG knock-in cells
The experiment in a line: Peptide competition assay in cell lysates, p110α-p85 interaction. Type of test: binding. As for the experimental part: FIGS. 3(A-M) illustrate: (A, B) Mapping peptides (P3, SEQ ID NO: 1; P4 SEQ ID NO: 2; P5, SEQ ID NO: 3; P6, SEQ ID NO: 4) derived from mutant p110α that inhibit interaction between IRS1 and p110α E545K. The indicated peptides were added into cell lysates made from the p110α E545K 3×FLAG KI cells. Cell lysates were immunoprecipitated with beads conjugated with anti-FLAG antibodies and then blotted with anti-IRS1 antibodies. (C) Immunoblots of cell lysates made from the p110α E545K 3×FLAG KI cells. Cell lysates were immunoprecipitated with beads conjugated with anti-FLAG antibodies and then blotted with the indicated antibodies. […] (J, K) Immunoblot and graph of purified recombinant p110α E545K mutant proteins mixed with the indicated components and quantified using an in vitro lipid kinase assay. […]
(§1) For Co-immunoprecipitation (Co-IP), cells were harvested, washed with PBS, and then lysed in IP buffer (50 mMTris [pH 7.4], 150 mMNaCl, 5 mMEDTA [pH 8.0], 0.5% NP40, 1 mM PMSF, complete Protease Inhibitor Cocktail tablet [Roche]; supplemented with phosphatase inhibitors [1 mM Na3VO4, 20 mM NaF, 0.1 mM b-glycerophosphate, 20 mM sodium pyrophosphate] when necessary). […] Lysates were then cleared by centrifugation (14,000 rpm, 10 min) and protein concentration in supernatants was determined with a BCA protein assay kit (Pierce, Rockford, Ill.). […]

A further test has as its system AKT phosphorylation. The experiment in a line: Immunoblot of AKT phosphorylation in cancer cell lines treated with stapled peptides. Format: cell-based, human. Also noted: AKT phosphorylation / AKT phosphorylation at both T308 and 5473 residues: dose or concentration left out as unconfirmed. The method, then: FIGS. 3(A-M) illustrate: (A, B) Mapping peptides (P3, SEQ ID NO: 1; P4 SEQ ID NO: 2; P5, SEQ ID NO: 3; P6, SEQ ID NO: 4) derived from mutant p110α that inhibit interaction between IRS1 and p110α E545K. The indicated peptides were added into cell lysates made from the p110α E545K 3×FLAG KI cells. Cell lysates were immunoprecipitated with beads conjugated with anti-FLAG antibodies and then blotted with anti-IRS1 antibodies. (C) Immunoblots of cell lysates made from the p110α E545K 3×FLAG KI cells. Cell lysates were immunoprecipitated with beads conjugated with anti-FLAG antibodies and then blotted with the indicated antibodies. (D) Immunoblots of cell lysate of Myc-tagged IRS1 plasmid, which co-transfected an ABD domain deletion construct of the FLAG-tagged p110α E545K mutant (ΔABD), incubated with the indicated amount of stapled p110α mutant peptides, and then immunoprecipitated with anti-FLAG antibodies and blotted with the indicated antibodies. (J, K) Immunoblot and graph of purified recombinant p110α E545K mutant proteins mixed with the indicated components and quantified using an in vitro lipid kinase assay. (L, M) Immunoblots of the indicated cell lines serum-starved, stimulated with 1 μg/ml insulin for 30 min, and then treated with or without the indicated peptides. Cell lysates were blotted with the indicated antibodies. All error bars show mean±SEM. *p<0.05, **p<0.001, t test.
(§2) FIG. 4(A-F) illustrate: (A) Schematic diagram of linear and stapled WT and mutant peptides derived from p110α (SEQ ID NOs: 5, 6, 7 and 8). (B) Immunoblots of cell lysates immunoprecipitated with beads conjugated with anti-FLAG antibodies and then blotted with the indicated antibodies. Linear or stapled WT and mutant peptide were added into culture medium of the p110α E545K 3×FLAG KI cells for 16 hr. (C) Immunoblots of cell lysates immunoprecipitated with anti-p110α antibodies and then blotted with the indicated antibodies. Vaco481 CRC cells were treated with the stapled mutant peptides at the indicated concentration. (D) Immunoblots of cell lysates blotted with the indicated antibodies. The indicated cell lines were treated with the stapled mutant peptide. (E) Immunoblots of cell lysates blotted with the indicated antibodies. The indicated cancer cell lines were treated or untreated with stapled WT or mutant peptide at 50 mM for 2 hr. (F) Immunoblots of cell lysates were blotted with the indicated antibodies. The indicated cancer cell lines were treated with or without 50 mM of stapled mutant peptide for 2 hr.
Colorectal cancer (CRC) cell lines DLD1, HCT116, Vaco481 and genetically engineered CRC cell lines were maintained in McCoy's 5A medium containing 10% fetal bovine serum (FBS). Lung cancer cell line H460 and breast cancer cell line T47D were cultured in RPMI 1640 medium plus 10% of FBS. Breast cancer cell line MDA-MB361 was maintained in Leibovitz's L-15 medium with 20% FBS. Human embryonic kidney HEK293 cells were cultured in DMEM medium containing 10% FBS. Mammalian cells were transfected with Lipofectamine in accordance with the manufacturer's instructions (Invitrogen).
For Co-immunoprecipitation (Co-IP), cells were harvested, washed with PBS, and then lysed in IP buffer (50 mMTris [pH 7.4], 150 mMNaCl, 5 mMEDTA [pH 8.0], 0.5% NP40, 1 mM PMSF, complete Protease Inhibitor Cocktail tablet [Roche]; supplemented with phosphatase inhibitors [1 mM Na3VO4, 20 mM NaF, 0.1 mM b-glycerophosphate, 20 mM sodium pyrophosphate] when necessary). For immunoblotting (IB) of phospho-specific proteins, unless stated otherwise, cells were lysed in urea buffer (100 mM NaH2PO4, 10 mM Tris-HCl, 8 M Urea, 1 mM Na3VO4, 20 mM NaF, 0.1 mM β-glycerophosphate, 20 mM sodium pyrophosphate, supplemented with complete Protease Inhibitor Cocktail tablet [Roche], pH 8.0). Lysates were then cleared by centrifugation (14,000 rpm, 10 min) and protein concentration in supernatants was determined with a BCA protein assay kit (Pierce, Rockford, Ill.). […]
Background: In western blotting, separated proteins are transferred to a membrane and probed.

Test [1] deals with T2, cellular p110α-p85 interaction (Homo sapiens, UniProt P42336, E545K).
T2 construct: tag the endogenous WT or mutant p110α with 3×FLAG at their C termini in DLD1 cells; endogenous in cells; host or cells: DLD1 p110α E545K 3×FLAG knock-in cells
Put plainly: Co-IP from treated cells, cellular p110α-p85 interaction. Type of test: cell-based. The method, then: as §2, with “The indicated cancer cell lines were treated or untreated with stapled WT or mutant peptide at 50 mM for 2 hr. (F) Immunoblots of cell lysates were blotted with the indicated antibodies. The indicated cancer cell lines were treated with or without 50 mM of stapled mutant peptide for 2 hr.” left out
as §1

T2 sequence (P42336 whole entry E545K): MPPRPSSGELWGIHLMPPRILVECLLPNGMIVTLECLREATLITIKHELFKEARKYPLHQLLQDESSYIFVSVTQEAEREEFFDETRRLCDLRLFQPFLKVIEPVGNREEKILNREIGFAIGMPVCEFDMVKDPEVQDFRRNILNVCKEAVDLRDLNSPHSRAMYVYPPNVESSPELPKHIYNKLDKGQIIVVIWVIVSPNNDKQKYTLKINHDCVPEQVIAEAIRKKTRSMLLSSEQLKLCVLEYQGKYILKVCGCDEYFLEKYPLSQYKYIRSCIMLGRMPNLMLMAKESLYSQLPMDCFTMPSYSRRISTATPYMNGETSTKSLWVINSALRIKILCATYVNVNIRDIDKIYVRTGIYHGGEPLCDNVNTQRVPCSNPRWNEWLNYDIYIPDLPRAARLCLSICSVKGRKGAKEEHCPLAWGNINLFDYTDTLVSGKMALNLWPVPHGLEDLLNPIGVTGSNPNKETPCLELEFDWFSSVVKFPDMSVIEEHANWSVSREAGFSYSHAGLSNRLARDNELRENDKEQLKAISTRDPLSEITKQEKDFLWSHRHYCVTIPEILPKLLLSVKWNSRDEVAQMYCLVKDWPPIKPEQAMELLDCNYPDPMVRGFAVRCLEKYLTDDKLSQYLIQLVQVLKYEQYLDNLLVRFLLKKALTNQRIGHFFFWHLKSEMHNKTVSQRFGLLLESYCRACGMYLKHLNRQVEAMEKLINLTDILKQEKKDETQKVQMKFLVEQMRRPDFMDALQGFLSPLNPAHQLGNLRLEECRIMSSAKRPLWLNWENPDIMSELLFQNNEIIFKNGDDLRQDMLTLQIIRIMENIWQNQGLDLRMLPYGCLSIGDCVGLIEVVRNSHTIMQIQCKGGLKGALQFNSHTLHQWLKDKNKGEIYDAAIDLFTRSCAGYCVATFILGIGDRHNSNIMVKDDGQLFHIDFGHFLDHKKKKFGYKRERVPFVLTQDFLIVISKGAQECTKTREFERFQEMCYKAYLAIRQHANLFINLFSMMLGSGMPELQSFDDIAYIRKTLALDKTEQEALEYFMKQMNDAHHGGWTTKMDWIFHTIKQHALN
T2 sequence (P27986 whole entry partner): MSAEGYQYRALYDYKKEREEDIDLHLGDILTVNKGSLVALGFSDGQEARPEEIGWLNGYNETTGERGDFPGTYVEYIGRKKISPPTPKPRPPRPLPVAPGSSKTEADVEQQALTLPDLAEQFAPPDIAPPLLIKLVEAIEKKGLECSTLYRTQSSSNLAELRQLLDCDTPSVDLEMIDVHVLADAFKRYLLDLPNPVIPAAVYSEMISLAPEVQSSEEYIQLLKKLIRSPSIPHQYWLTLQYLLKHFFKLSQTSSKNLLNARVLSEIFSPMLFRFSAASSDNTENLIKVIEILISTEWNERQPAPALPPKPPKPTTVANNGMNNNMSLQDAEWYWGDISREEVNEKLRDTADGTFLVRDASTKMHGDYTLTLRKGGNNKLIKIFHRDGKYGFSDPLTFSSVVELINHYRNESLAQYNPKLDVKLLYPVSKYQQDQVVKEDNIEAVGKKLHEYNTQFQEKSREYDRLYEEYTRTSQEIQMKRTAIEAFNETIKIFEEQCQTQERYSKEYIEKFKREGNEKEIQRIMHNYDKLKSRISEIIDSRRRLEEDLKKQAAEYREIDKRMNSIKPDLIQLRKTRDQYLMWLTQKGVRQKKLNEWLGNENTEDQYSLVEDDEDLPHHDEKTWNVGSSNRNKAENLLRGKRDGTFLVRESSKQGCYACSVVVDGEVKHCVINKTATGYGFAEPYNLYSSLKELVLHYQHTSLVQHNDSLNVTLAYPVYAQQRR
T1 sequence (P42336 whole entry E545K): as the sequence (P42336 whole entry E545K) above
T1 sequence (P27986 whole entry partner): as the sequence (P27986 whole entry partner) above

Take “H2N-SEITKQEK-D^549-FLW-S^553-HRHYC-COOH [stapled mutant peptide]”: the “effect on p110α-p85 interaction” value with p110α-p85 interaction is recorded as “no effects”. The “AKT phosphorylation at both T308 and 5473 residues” value in the test on AKT phosphorylation (DLD1 cells harboring p110α E545K), with AKT phosphorylation (H460 cells harboring p110α E545K), with AKT phosphorylation (MDA-MB361 cells harboring p110α E545K) and in the test on AKT phosphorylation (Vaco481 cell line harboring p110α Q546P) was “reduced” throughout. Also, the AKT phosphorylation entry in the test on AKT phosphorylation (HCT116 cells harboring p110α H1047R) is listed as “no effect”; in the test on AKT phosphorylation (RKO cells harboring p110α H1047R), “no effect”; with AKT phosphorylation (T47D cells harboring p110α H1047R), “no effect”; in the test on AKT phosphorylation (WT-only DLD1 cells), “did not affect”; in the test with AKT phosphorylation (mutant-only DLD1 cells), “reduced”. The “AKT phosphorylation when cell lines were stimulated by insulin” value in the test on AKT phosphorylation (serum-starved, 1 μg/ml insulin for 30 min) was “no effect”. In the test with AKT phosphorylation (summary statement on FIG. 4), the “AKT phosphorylation in cancer cells” value is reported as “reduced”. In addition, in test [1], the “cellular p110α-p85 interaction” value was “did not interfere”.
